Test results taken from patent US20140323543A1, “Treatment of Prostate Cancer with eIF4E Antisense Compounds” (priority 2013, published 2014).
Marks after values point to notes of the source that are not given here. In the oligonucleotide strings, read from the 5' end, every base follows the letter of its sugar. An asterisk marks phosphorothioate; unmarked linkages are phosphodiester. Other units and linkages are bracketed, terminal groups are in braces. A string of capitals states the bases alone. e = 2'-O-(2-methoxyethyl) (MOE); [5mC] = 5-methylcytosine; d = 2'-deoxy (DNA)

Key:
Format in all cases: in vivo
[1] = tested on: PC-3 Hormone-Refractory Prostate Cancer Xenograft; assay: PC-3 hormone-refractory prostate cancer xenograft tumor volume in mice; conditions: ASO 50 mg/kg iv; for Mean Tumor Volume: in mm³; for Percent Reduction in Mean Tumor Volumes (observed): Prostate PC3 Day 35, vs. Vehicle Control
Method: (§1) Xenograft studies are carried out as described in Graff et al. (2005) Cancer Res. 65:7462-7469. Five million human cancer cells representing non-small cell lung cancer (line A549; ATCC, accession no. CCL-185), hormone refractory prostate cancer (line PC-3; ATCC, accession no. CRL-1435), and ER-/PR-HER2-breast cancer (line MDA-231; ATCC, accession no. HTB-26) are injected subcutaneously in the flank of 6-8 week old, athymic nude mice (Harlan, Indianapolis, Ind.) in a 1:1 mixture of serum-free growth medium and matrigel (Becton Dickinson, Bedford, Mass., catalogue #354234). Mice are monitored daily for palpable tumors.
(§2) When tumor volumes reach ˜50-100 mm^3, mice are randomized to treatment groups (Graff et al. (2007) J. Clin. Invest. 117:2638-48). Body weight is monitored each time tumors are measured.
(§3) For treatment, all mice are injected intravenously with the eIF-4E ASO in saline in a total volume of 200 μl. The ASO consists of the nucleotide sequence 5′-[…]-3′ (SEQ ID NO:1), in which every internucleoside linkage is a phosphorothioate linkage, nucleotides 1-5 and 16-20 reading from the 5′ end to the 3′ end each comprise a 2′-O-(2-methoxyethyl) sugar, nucleotides 6-15 are 2′-deoxynucleotides, every cytosine residue is a 5-methylcytosine, and which is in the form of a sodium salt. The mice are first injected with an initial loading dose of 50 mg/kg ASO for 3 consecutive days, followed by 50 mg/kg thrice weekly thereafter.
(§4) Taxotere® (docetaxel) dosing begins 8 days after the first ASO dose to allow time for reduction of eIF-4E protein expression. Mice are dosed with 2.5 or 10 mg/kg Taxotere® (Sanofi-Aventis) intraperitoneally (IP) in 1% ethanol in 5% dextrose water in a volume of 200 μl once weekly for 3 weeks.
(§5) Tumor volumes are calculated measuring the largest (L) and smallest (W) diameters with a caliper. The formula is: Volume=L×W^2×0.534. Tumor volume data are transformed to a log scale to equalize variance across time and treatment groups. The log volume data are analyzed with a two-way repeated measures analysis of variance by time and treatment using SAS PROC MIXED software (SAS Institute Inc, Cary, N.C.) using the spatial power covariance structure. Treatment groups are compared to the control group at each time point and overall. The data may be plotted as means and standard errors for each treatment group versus time. Additivity is assessed in two ways: (1) as an overall interaction effect between the ASO and Taxotere® in the repeated measures analysis, and (2) by using the Bliss Independence method on the final day of the study (C.I. Bliss (1939) Ann. Appl. Biol. 26:585-615). These two methods yield the same results.
(§6) The observed percent reductions in mean tumor volume at the conclusion of each study resulting from the various treatments are shown in Table 4. These are calculated as: […]
(§7) The “Expected if Additive” percent reductions in mean tumor volume shown in Table 4 are calculated using the Bliss Independence definition of additivity, as follows: […]

[2] = tested on: MDA-231 Breast Cancer Xenograft; assay: MDA-231 breast cancer xenograft tumor volume in mice; conditions: for Percent Reduction in Mean Tumor Volumes (observed): Breast MDA-231 Day 33, vs. Vehicle Control; for Percent Reduction in Mean Tumor Volumes (observed) / Mean Tumor Volume: ASO 50 mg/kg iv; for Mean Tumor Volume: in mm³
Method: as §1, §2, §3, §4, §5, §6, §7

[3] = tested on: A549 Non-Small Cell Lung Cancer Xenograft; assay: A549 non-small cell lung cancer xenograft tumor volume in mice; set-up: key to Mean Tumor Volume: tumor volume in mm^3; conditions: ASO 50 mg/kg iv; for Mean Tumor Volume: in mm³; for Percent Reduction in Mean Tumor Volumes (observed): NSCLC A 549 Day 50, vs. Vehicle Control, Taxotere 10 mg/kg IP
Method: as §1, §2, §3, §4, §5, §6, §7

[4] = Day 7, Taxotere 10 mg/kg IP once weekly from 8 days after first ASO dose, tumor volumes in mm^3
[5] = Day 5, Taxotere 2.5 mg/kg IP once weekly from 8 days after first ASO dose, tumor volumes in mm^3
[6] = Day 7, docetaxel 10 mg/kg IP once weekly from 8 days after first ASO dose, tumor volumes in mm^3

| Compound | Mean Tumor Volume [1, 4] | Mean Tumor Volume ([1]; Day 12, Taxotere 10 mg/kg IP) | Mean Tumor Volume ([1]; Day 15, Taxotere 10 mg/kg IP) | Mean Tumor Volume ([1]; Day 19, Taxotere 10 mg/kg IP) | Mean Tumor Volume ([1]; Day 22, Taxotere 10 mg/kg IP) | Mean Tumor Volume ([1]; Day 27, Taxotere 10 mg/kg IP) | Mean Tumor Volume ([1]; Day 29, Taxotere 10 mg/kg IP) | Mean Tumor Volume ([1]; Day 33, Taxotere 10 mg/kg IP) | Mean Tumor Volume ([1]; Day 35, Taxotere 10 mg/kg IP) | Percent Reduction in Mean Tumor Volumes (observed) ([1]; Taxotere 10 mg/kg IP) | Percent Reduction in Mean Tumor Volumes (observed) ([2]; Taxotere 2.5 mg/kg IP) | Mean Tumor Volume [2, 5] | Mean Tumor Volume ([2]; Day 8, Taxotere 2.5 mg/kg IP) | Mean Tumor Volume ([2]; Day 12, Taxotere 2.5 mg/kg IP) | Mean Tumor Volume ([2]; Day 15, Taxotere 2.5 mg/kg IP) | Mean Tumor Volume ([2]; Day 19, Taxotere 2.5 mg/kg IP) | Mean Tumor Volume ([2]; Day 22, Taxotere 2.5 mg/kg IP) | Mean Tumor Volume ([2]; Day 26, Taxotere 2.5 mg/kg IP) | Mean Tumor Volume ([2]; Day 29, Taxotere 2.5 mg/kg IP) | Mean Tumor Volume ([2]; Day 33, Taxotere 2.5 mg/kg IP) | also measured |
| --- | --- | --- | --- | --- | --- | --- | --- | --- | --- | --- | --- | --- | --- | --- | --- | --- | --- | --- | --- | --- | --- |
| d(P-thio)([2′-O-(2-methoxyethyl)]m5rU-([2′-O-(2-methoxyethyl)]rG-([2′-O-(2-methoxyethyl)]m5rU-([2′-O-(2-methoxyethyl)]m5rC-([2′-O-(2-methoxyethyl)]rA-T-A-T-T-m5C-m5C-T-G-G-A-([2′-O-(2-methoxyethyl)]m5rU-([2′-O-(2-methoxyethyl)]m5rC-([2′-O-(2-methoxyethyl)]m5rC-([2′-O-(2-methoxyethyl)]m5rU-([2′-O-(2-methoxyethyl)]m5rU) (antisense eT*eG*eT*e[5mC]*eA*dT*dA*dT*dT*d[5mC]*d[5mC]*dT*dG*dG*dA*eT*e[5mC]*e[5mC]*eT*eT) [eIF-4E ASO] | 49.8 | 88.3 | 130.3 | 159.0 | 218.8 | 294.5 | 343.9 | 424.0 | 491.2 | −10.2% | +16.6% | 78.9 | 129.4 | 166.6 | 221.0 | 268.2 | 356.3 | 435.9 | 574.1 | 626.2 | Effect on mean tumor volume (in words) ([2]; breast cancer model, ASO alone): non-statistically significant increase; Mean Tumor Volume [3, 6]: 52.7; Mean Tumor Volume ([3]; Day 10, docetaxel 10 mg/kg IP): 69.4; Mean Tumor Volume ([3]; Day 15, docetaxel 10 mg/kg IP): 113.7; Mean Tumor Volume ([3]; Day 18, docetaxel 10 mg/kg IP): 79.1; Mean Tumor Volume ([3]; Day 22, docetaxel 10 mg/kg IP): 139.5; Mean Tumor Volume ([3]; Day 25, docetaxel 10 mg/kg IP): 149.0; Mean Tumor Volume ([3]; Day 29, docetaxel 10 mg/kg IP): 220.1; Mean Tumor Volume ([3]; Day 32, docetaxel 10 mg/kg IP): 249.5; Mean Tumor Volume ([3]; Day 36, docetaxel 10 mg/kg IP): 256.6; Mean Tumor Volume ([3]; Day 39, docetaxel 10 mg/kg IP): 239.1; Mean Tumor Volume ([3]; Day 43, docetaxel 10 mg/kg IP): 313.2; Mean Tumor Volume ([3]; Day 46, docetaxel 10 mg/kg IP): 292.3; Mean Tumor Volume ([3]; Day 50, docetaxel 10 mg/kg IP): 404.0; Percent Reduction in Mean Tumor Volumes (observed) [3]: −17.3% |
| CC(=O)O[C@@]12CO[C@@H]1C[C@H](O)[C@@]1(C)C(=O)[C@H](O)C3=C(C)[C@@H](OC(=O)[C@H](O)[C@@H](NC(=O)OC(C)(C)C)c4ccccc4)C[C@@](O)([C@@H](OC(=O)c4ccccc4)[C@H]21)C3(C)C [Docetaxel, (2R,3S)—N-carboxy-3-phenylisoseine,N-tert-butyl ester, 13-ester with 5β-20-epoxy-1,2α,4,7β,10β,13α-hexahydroxytax-11-en-9-one 4-acetate 2-benzoate, trihydrate, reference compound] | 46.3 | 106.8 | 134.7 | 164.8 | 171.7 | 157.4 | 162.7 | 161.6 | 167.0 | −69.5%* | −1.4% | 78.7 | 130.1 | 180.9 | 221.0 | 270.3 | 333.9 | 384.9 | 450.4 | 529.6 | Mean Tumor Volume [3, 6]: 49.7; Mean Tumor Volume ([3]; Day 10, docetaxel 10 mg/kg IP): 56.7; Mean Tumor Volume ([3]; Day 15, docetaxel 10 mg/kg IP): 114.8; Mean Tumor Volume ([3]; Day 18, docetaxel 10 mg/kg IP): 70.0; Mean Tumor Volume ([3]; Day 22, docetaxel 10 mg/kg IP): 135.8; Mean Tumor Volume ([3]; Day 25, docetaxel 10 mg/kg IP): 170.1; Mean Tumor Volume ([3]; Day 29, docetaxel 10 mg/kg IP): 257.0; Mean Tumor Volume ([3]; Day 32, docetaxel 10 mg/kg IP): 261.5; Mean Tumor Volume ([3]; Day 36, docetaxel 10 mg/kg IP): 290.0; Mean Tumor Volume ([3]; Day 39, docetaxel 10 mg/kg IP): 282.3; Mean Tumor Volume ([3]; Day 43, docetaxel 10 mg/kg IP): 342.6; Mean Tumor Volume ([3]; Day 46, docetaxel 10 mg/kg IP): 310.2; Mean Tumor Volume ([3]; Day 50, docetaxel 10 mg/kg IP): 343.8; Percent Reduction in Mean Tumor Volumes (observed) [3]: −29.6% |
